The values below come from US5449662A, “Atrial natriuretic peptide clearance inhibitors which resist degradation” (Scios Nova Inc., priority 1992, dated 1995).

Numbered stars: 1 amine (or outer) side, 2 acyl side, 3 side chain; on linkers, the order of the positions; unused ones are H or OH. Square brackets hold non-standard residues; d marks the D form. Peptide text beside a SMILES is read from it. * marks the point of attachment. X4 = O=C(NO)C(Cc1ccccc1)N(CC(=O)[*:2])[*:1]; γGlu = O=C(O)[C@H](CCC(=O)[*:2])N[*:1]; X2 = O=C(Cc1ccc(N[*:1])cc1)[*:2]; X3 = O=C(O)C(Cc1ccccc1)NCCC(=O)*; X1 = O=C(C(CS)Cc1ccccc1)*

Test [1] addresses T1, ANP clearance receptor on bovine aortic smooth muscle (BASM) cells (Bos taurus, UniProt P10730).
T1 construct: endogenous in cells; host or cells: bovine aortic smooth muscle (BASM) cells
T1 sequence (P10730 42-537): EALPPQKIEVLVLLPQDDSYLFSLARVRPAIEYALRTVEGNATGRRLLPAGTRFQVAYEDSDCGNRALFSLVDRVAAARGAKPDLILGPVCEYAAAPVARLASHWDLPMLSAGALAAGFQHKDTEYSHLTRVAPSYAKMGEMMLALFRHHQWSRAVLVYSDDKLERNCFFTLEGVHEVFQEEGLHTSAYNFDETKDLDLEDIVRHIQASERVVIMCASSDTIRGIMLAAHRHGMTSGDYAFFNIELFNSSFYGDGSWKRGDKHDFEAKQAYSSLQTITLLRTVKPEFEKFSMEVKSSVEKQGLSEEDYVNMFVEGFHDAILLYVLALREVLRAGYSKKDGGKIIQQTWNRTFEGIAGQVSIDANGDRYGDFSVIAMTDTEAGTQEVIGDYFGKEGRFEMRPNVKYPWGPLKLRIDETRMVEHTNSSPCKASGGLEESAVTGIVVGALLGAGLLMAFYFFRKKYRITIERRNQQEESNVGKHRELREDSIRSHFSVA
As to the kind of experiment: BASM receptor binding assay (competition with I125 labeled rANP(102-126)). As to conditions: read-out: Ki(app). From the text: (§1) The assay systems used are adapted from those of Schenk, D. B., et al, Biochem Biophys Res Commun (1985) 127:433-442 and Scarborough, R. M., J Biol Chem (1986) 261:12960-12964. These assays measure clearance receptor binding affinity through competition with ANP using the receptors on bovine aortic smooth muscle (BASM) or bovine aortic endothelial (BAE) cells. Also employed is the receptor binding affinity assay for the clearance receptor in isolated perfused rat kidney as described by Maack, T., et al, Science (1987) 238:675-679.

Another test deals with T2, Endopeptidase 24.11 (Rattus norvegicus, UniProt P07861).
T2 construct: rat urine was collected and desalted on Sephadex G-25; from tissue; host or cells: rat urine, desalted on Sephadex G-25
T2 sequence (P07861 1-750): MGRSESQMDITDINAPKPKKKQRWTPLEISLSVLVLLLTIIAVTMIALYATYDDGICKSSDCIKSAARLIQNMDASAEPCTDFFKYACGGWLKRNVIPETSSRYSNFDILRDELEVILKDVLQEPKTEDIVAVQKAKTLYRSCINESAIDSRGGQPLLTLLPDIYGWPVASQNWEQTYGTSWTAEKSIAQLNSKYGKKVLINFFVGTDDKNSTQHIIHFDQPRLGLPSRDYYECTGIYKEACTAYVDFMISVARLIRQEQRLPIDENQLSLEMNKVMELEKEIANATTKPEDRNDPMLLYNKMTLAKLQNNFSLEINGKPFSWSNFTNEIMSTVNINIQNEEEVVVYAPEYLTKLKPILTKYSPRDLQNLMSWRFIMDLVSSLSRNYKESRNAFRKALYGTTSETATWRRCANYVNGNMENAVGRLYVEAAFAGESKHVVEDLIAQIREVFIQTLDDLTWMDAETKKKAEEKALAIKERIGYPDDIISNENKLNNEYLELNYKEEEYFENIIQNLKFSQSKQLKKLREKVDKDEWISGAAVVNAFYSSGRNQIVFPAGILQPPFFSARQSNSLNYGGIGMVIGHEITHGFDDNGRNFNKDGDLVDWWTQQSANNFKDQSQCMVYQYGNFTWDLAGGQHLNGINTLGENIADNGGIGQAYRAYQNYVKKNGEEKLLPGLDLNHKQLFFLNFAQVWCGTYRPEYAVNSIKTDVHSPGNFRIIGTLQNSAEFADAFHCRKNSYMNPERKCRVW
The experiment in a line: Inhibition of endopeptidase 24.11 (cleavage of rANP(99-126), HPLC). Type of test: biochemical. Particulars: for inhibition at 10 µM / inhibition at 0.02 µM / inhibition at 0.1 µM / inhibition at 1 µM: read-out: % Inhibition of Metabolite Formation; for inhibition at 0.02 µM: 20 nM; for inhibition at 0.1 µM: 100 nM. The method, then:
Endopeptidase 24.11 inactivates ANP by cleavage at the Cys^105 -Phe^106 amide bond. The ability of the compounds of the invention to inhibit this degradation was assayed by a modification of the procedure of Ura, N., et al, Kidney Int (1987) 32:507-513 by substituting rANP(99-126) for bradykinin as a substrate.
Briefly, rat urine was collected and desalted on Sephadex G-25 as described by Ura (supra) and 4 ul of sample in 100 ul 0.1M Tris buffer, pH 7.2 containing aminopeptidase inhibitor bestatin (10 ug/ml), potato tuber carboxy peptidase inhibitor (10 ug/ml) and aprotinin (5,000 kalikrein inhibitory unit/ml) were incubated for 15 min at 37° C. The assay was then initiated by addition of 2-10 ug rANP(99-126) to a final volume of 0.5 ml and incubated at 10-20 min at 37° C. Termination of the reaction was accomplished by boiling, spinning and freezing.
Compounds to be tested for their ability to inhibit the endopeptidase were added to the preincubation mixture 15 min before addition of substrate.
The frozen samples, incubated with or without inhibitor, were thawed and analyzed by HPLC to determine the concentration of starting rANP(99-126) and its degradation product. HPLC analysis was conducted on Vydac C18 reverse phase HPLC column (4.6 mm ID×12.5 cm; 5 uM, 300A). A linear gradient of 15-35% acetonitrile containing 0.1% TFA was run at 1.0 ml/min on a Perkin-Elmer series 4 HPLC system. The effluent was monitored at 220 nm and the peptide peak heights measured.
The results were computed as the percent of the Cys^105 -Phe^106 cleavage metabolite peak in the test sample as compared to the peak height for this metabolite in the control.

Test [2] addresses T3, clearance receptor in isolated perfused rat kidney (Rattus norvegicus, UniProt P41740).
T3 construct: the clearance receptor in isolated perfused rat kidney; from tissue; host or cells: isolated perfused rat kidney
T3 sequence (P41740 41-535): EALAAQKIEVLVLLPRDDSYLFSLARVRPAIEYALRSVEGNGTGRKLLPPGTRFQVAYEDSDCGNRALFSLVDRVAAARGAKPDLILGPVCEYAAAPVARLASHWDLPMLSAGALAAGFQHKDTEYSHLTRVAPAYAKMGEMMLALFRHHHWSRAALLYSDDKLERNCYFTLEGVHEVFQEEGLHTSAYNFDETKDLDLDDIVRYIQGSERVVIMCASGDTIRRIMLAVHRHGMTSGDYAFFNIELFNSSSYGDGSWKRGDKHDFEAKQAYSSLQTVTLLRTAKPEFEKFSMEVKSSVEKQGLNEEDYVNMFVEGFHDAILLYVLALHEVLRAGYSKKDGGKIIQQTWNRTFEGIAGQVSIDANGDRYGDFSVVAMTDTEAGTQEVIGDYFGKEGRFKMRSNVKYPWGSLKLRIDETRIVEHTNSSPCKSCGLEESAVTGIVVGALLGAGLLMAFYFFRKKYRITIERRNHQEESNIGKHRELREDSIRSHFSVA
The experiment in a line: Rat kidney receptor binding assay (isolated perfused rat kidney). Particulars: labeled compound 4 × 10^-12 M + competitor 1 × 10^-6 M; n = 2.
Text: as §1
In the rat kidney receptor binding assay, the native 28-residue labeled ANP was used: I^125 labeled rANP(99-126), with the label linked to tyrosine at 126. The results of this assay are shown in Table 2 as the ratio of bound-to-free labeled rANP(99-126) in the presence and absence of competing compound.

Usually inhibition stands for the drop in the measured response relative to a control, in per cent. Regarding `CC[C@H](C)[C@H](NC(=O)[C@H](CCCNC(=N)N)NC(=O)[C@H](CC(=O)O)NC(=O)[C@@H](NC(=O)[C@H](CCCNC(=N)N)NC(=O)Cc1ccc(NC(=O)[C@H](Cc2ccccc2)NC(Cc2ccccc2)C(=O)O)cc1)[C@@H](C)CC)C(N)=O` (stereo partly drawn) [Analog 445, F[N]F-4-APA-R-I-D-R-I-NH2], the Ki in test [1] came out at 6.5 nM. The inhibition at 10 µM on Endopeptidase 24.11 stood at 0%.

As for `CC(C)C[C@H](NP(=O)(O)O[C@@H]1O[C@@H](C)[C@H](O)[C@@H](O)[C@H]1O)C(=O)N[C@@H](Cc1c[nH]c2ccccc12)C(=O)O` [Phosphoramidon, phosphoramidon, reference compound], at Endopeptidase 24.11, the inhibition at 0.02 µM stood at 0%, the inhibition at 0.1 µM worked out at 30%, the inhibition at 1 µM turned out to be 80% and the inhibition at 10 µM came to 97%.

Regarding `O=C(O)CNC(=O)C(CS)Cc1ccccc1` (stereo not shown) [Thiorphan, thiorphan, reference compound], at Endopeptidase 24.11, the inhibition at 0.02 µM worked out at 12%, the inhibition at 0.1 µM came out at 53%, the inhibition at 1 µM amounted to 67% and the inhibition at 10 µM was 92%.

With `CC[C@H](C)[C@H](NC(=O)[C@H](CCCNC(=N)N)NC(=O)[C@H](CC(=O)O)NC(=O)[C@@H](NC(=O)[C@H](CCCNC(=N)N)NC(=O)CNC(=O)[C@H](CC(=O)O)NC(=O)[C@H](Cc1ccccc1)NC(Cc1ccccc1)C(=O)O)[C@@H](C)CC)C(N)=O` (stereo partly shown) [Analog 463], the Ki in test [1] was 225 nM.

On to `CC[C@H](C)[C@H](NC(=O)[C@H](CCCNC(=N)N)NC(=O)[C@H](CC(=O)O)NC(=O)[C@@H](NC(=O)[C@H](CCCNC(=N)N)NC(=O)Cc1ccc(NC(=O)C(CS)Cc2ccccc2)cc1)[C@@H](C)CC)C(N)=O` (stereo partly drawn) [Analog 122, MBP-4-APA--R--I--D--R--I--NH2] (X1-[X2]RIDRI-NH2), for which the Ki in test [1] stood at 10.9 nM. In addition, on Endopeptidase 24.11, the inhibition at 0.02 µM came to 12%, the inhibition at 0.1 µM stood at 25%, the inhibition at 1 µM was 72% and the inhibition at 10 µM was 97%.

Turning to `CC[C@H](C)[C@H](NC(=O)[C@H](CCCNC(=N)N)NC(=O)[C@H](CC(=O)O)NC(=O)[C@@H](NC(=O)[C@H](CCCNC(=N)N)NC(=O)CC[C@H](NC(=O)C(CS)Cc1ccccc1)C(=O)O)[C@@H](C)CC)C(N)=O` (stereo partly shown) [Analog 78] ({X1-γGlu}-RIDRI-NH2), in test [1], the Ki turned out to be 202 nM.

As for `CC[C@H](C)[C@H](NC(=O)[C@H](CCCNC(=N)N)NC(=O)[C@H](CC(=O)O)NC(=O)[C@@H](NC(=O)[C@H](CCCNC(=N)N)NC(=O)CNC(=O)[C@@H](CC(=O)O)NC(=O)C(CS)Cc1ccccc1)[C@@H](C)CC)C(N)=O` (stereo partly shown) [Analog 23] (X1-[dD]GRIDRI-NH2), the Ki in test [1] stood at 115 nM.

In the case of `CC[C@H](C)[C@H](NC(=O)[C@H](CCCNC(=N)N)NC(=O)[C@H](CC(=O)O)NC(=O)[C@@H](NC(=O)[C@H](CCCNC(=N)N)NC(=O)CNC(=O)[C@H](CC(=O)O)NC(=O)C(CS)Cc1ccccc1)[C@@H](C)CC)C(N)=O` (stereo partly shown) [Analog 12] (X1-DGRIDRI-NH2), the Ki in test [1] is 207 nM.

With `CC[C@H](C)[C@H](NC(=O)[C@H](CCCNC(=N)N)NC(=O)[C@H](CC(=O)O)NC(=O)[C@@H](NC(=O)[C@H](CCCNC(=N)N)NC(=O)CNC(=O)CNC(Cc1ccccc1)C(=O)O)[C@@H](C)CC)C(N)=O` (stereo partly shown) [Analog 364], the Ki in test [1] stood at 66.9 nM.

Consider “F--[N]--F--G--G--R--I--D--R--I--NH2 [Analog 436]”, for which the “Ratio of Bound/Free (125I)rANP(99-126), Whole Kidney” value in test [2] came to 1.31.

With `CC[C@H](C)[C@H](NC(=O)[C@H](CCCNC(=N)N)NC(=O)[C@H](CC(=O)O)NC(=O)[C@@H](NC(=O)[C@H](CCCNC(=N)N)NC(=O)CNC(=O)CCNC(Cc1ccccc1)C(=O)O)[C@@H](C)CC)C(N)=O` (stereo partly shown) [Analog 427] (X3-GRIDRI-NH2), the Ki in test [1] worked out at 11.5 nM.

In the case of `CC[C@H](C)[C@H](NC(=O)[C@H](CCCNC(=N)N)NC(=O)[C@H](CC(=O)O)NC(=O)[C@@H](NC(=O)[C@H](CCCNC(=N)N)NC(=O)CNC(=O)CNC(Cc1ccccc1)C(=O)NO)[C@@H](C)CC)C(N)=O` (stereo partly shown) [Analog 702] (H-[X4]GRIDRI-NH2), the Ki in test [1] is 4.6 nM.

Turning to `CC[C@H](C)[C@H](NC(=O)[C@H](CCCNC(=N)N)NC(=O)[C@H](CC(=O)O)NC(=O)[C@@H](NC(=O)[C@H](CCCNC(=N)N)NC(=O)CNC(=O)CNC(=O)[C@H](Cc1ccccc1)NC(Cc1ccccc1)C(=O)O)[C@@H](C)CC)C(N)=O` (stereo partly shown) [Analog 436], the Ki in test [1] was found to be 27.3 nM.

In the case of `CC[C@H](C)[C@H](NC(=O)[C@H](CCCNC(=N)N)NC(=O)[C@H](CC(=O)O)NC(=O)[C@@H](NC(=O)[C@H](CCCNC(=N)N)NC(=O)CC[C@H](NC(=O)[C@H](Cc1ccccc1)NC(CCc1ccccc1)C(=O)O)C(=O)O)[C@@H](C)CC)C(N)=O` (stereo partly shown) [Analog 544], the Ki in test [1] stood at 58.2 nM.

In the case of `CC[C@H](C)[C@H](NC(=O)[C@H](CCCNC(=N)N)NC(=O)[C@H](CC(=O)O)NC(=O)[C@@H](NC(=O)[C@H](CCCNC(=N)N)NC(=O)CNC(=O)CNC(=O)C(CS)Cc1ccccc1)[C@@H](C)CC)C(N)=O` (stereo partly drawn) [Analog 1, MBP-G-G-R-I-D-R-I-NH2] (X1-GGRIDRI-NH2), in test [1], the Ki came out at 19.6 nM. Besides, on Endopeptidase 24.11, the inhibition at 0.02 µM stood at 0%, the inhibition at 0.1 µM turned out to be 23%, the inhibition at 1 µM was determined as 45% and the inhibition at 10 µM is 92%. At Endopeptidase 24.11 (approximate, from Table 3, read-out: ED50 of inhibition), the IC50 is roughly 1000 nM.
